We go through one compound from patent US20120129809A1, “LUNG CANCER TREATMENT” (priority 2009, published 2012).

In series [1] the test system is NSCLC cell lines (KRAS mutant and KRAS wild-type). Briefly: panel of more than 100 NSCLC cell lines. The format is cell-based.
For the next series, the system named is human tumor cell lines. In words: antiproliferative activity in human tumor cell lines. The series is classed as cell-based. Conditions: broad range of human tumor cell lines, including NSCLC, fibrosarcoma, glioblastoma, erythroleukemia, prostate, colon, ovarian, endometrial and breast cancers.
For series [2], the system named is PTEN-deficient tumor cell lines. Conditions: PTEN-deficient lines including glioblastoma, prostate, breast, pancreas, lung and colon; cited from earlier work.
Series [3] concerns several tumor types, such as sarcomas. In words: clinical development in advanced cancers. The format is in vivo.
The next series concerns A549. Briefly: KRAS mutant NSCLC xenograft A549. The format is in vivo.
A short description of another series: side effects in patients. The series is classed as in vivo. Conditions: onset as early as first week of treatment.
The subject of a further series is H2122. In words: KRAS mutant NSCLC xenograft H2122. The format is in vivo.
The test system of series [4] is human tumor cell line xenografts. Briefly: murine tumor xenograft models utilizing human tumor cell lines. The format is in vivo. Conditions: xenografts representing glioblastoma, prostate, breast, lung, colon and pancreatic cancers.

For the compound `CO[C@H]1C[C@@H]2CC[C@@H](C)[C@@](O)(O2)C(=O)C(=O)N2CCCCC2C(=O)O[C@H]([C@H](C)C[C@@H]2CC[C@H](OP(C)(C)=O)[C@H](OC)C2)CC(=O)[C@H](C)/C=C(\C)[C@@H](O)[C@H](OC)C(=O)[C@H](C)C[C@@H](C)/C=C/C=C/C=C/1C` (stereo in doubt) [Deforolimus], the “activity in KRAS mutant versus KRAS wild-type cells” value in [1] was “the same in both KRAS mutant and KRAS wild-type cells”. Further, the antiproliferative activity result (in the series with human tumor cell lines; in series [2]) was “demonstrated antiproliferative activity” each time. Moreover, the “metabolism by CYP3A” value in the series on CYP3A is reported as “extensively metabolized by CYP3A”. Moreover, the figures for the anti-tumor activity result (in [3]; with A549; in the series on H2122) were “evidence of anti-tumor activity”, “showed anti-tumor activity” and “showed anti-tumor activity”, respectively. In the series “side effects in patients”, the side effect result was “mouth sores typically reported as mucositis”. The in vivo activity result in [4] is listed as “demonstrated in vivo activity”.
